Assay results: article PMC10482691, “LTP induction by structural rather than enzymatic functions of CaMKII” (Nature, 2023)
Values joined by “and” are separate entries in the source; they are usually repeats but may differ in a detail not shown here. Equal values may be shown once.

Experiments:
[1] = target: purified CaMKIIα binding to GST–GluN2B-c WT (Homo sapiens, UniProt Q9UQM7); experiment: CaMKII binding to immobilized GST–GluN2B-c in vitro; conditions: for bound CaMKIIα (immunoblot, relative): Ca2+/CaM
Description: CaMKII–GluN2B binding assays were done as described[9],[13],[25]. Briefly, GST–GluN2B-c tail (GST–2BC) was immobilized on anti-GST antibody-coated microtiter plates (Thermo Scientific), blocked for 30 min with 5% BSA and then overlaid with […] CaMKII (subunit concentration) in PIPES-buffered saline (pH 7.2) containing 2 mM Ca^2+, 1 μM CaM, 1 mM Mg^2+, 0.1% BSA and 0.1% Tween-20 for 20 min at room temperature. […] After extensive washes in buffer containing 1 mM EGTA, GST–2BC and bound CaMKII were eluted for 10 min in SDS loading buffer at 95 °C. Bound CaMKII was measured via immunoblot.

[2] = tested on: paCaMKII binding to GST-2BC; experiment: Blue light-induced paCaMKII pulldown to immobilized GST-2BC; conditions: Dark, 100 µM ADP
Excerpt: Extended Data Fig. 1 paCaMKII photoactivation-induced sLTP requires GluN2B binding. Data are presented as mean values +/− SEM. a, Representative images of GFP-paCaMKII WT and mCherry-2BC expressed in cultured hippocampal neurons before and after blue light stimulation. Time course of correlation indices of GFP-paCaMKII and mCh-2BC after photoactivation. Images were acquired in a single plane ever 10 s (n = 4 cells). Scale bar indicates 10 µm. b, Schematic of blue light-induced paCaMKII pulldown to immobilized GST-2BC. c, Binding of […] to immobilized GST-2BC was induced by blue light in the presence of either 100 ADP µM alone or without nucleotide. (n = 4 independent samples; *p < 0.05; one-way Kruskal Wallis with Dunn’s comparison test). Dark:Light+ADP p = 0.0132; Dark:Light-ADP p = 0.1860; Light+ADP:Light-ADP p = 0.9779. d, Schematic of how K42M and I205K CaMKII mutations affect enzymatic activity and the induction of GluN2B binding. e, Representative images of dissociated mouse WT and GluN2B^ΔCaMKII hippocampal cultures expressing GFP-paCaMKII WT and mCherry cell fill before and after photoactivation. Scale bar indicates 5 µm. n = 9, 9 cells; See Fig. 1f, g (right) for quantification. Source data

Arg(h) = Arg(h) (Homo sapiens, UniProt P42684); experiment: Kinase selectivity panel (residual activity at 1 μM); assay type: biochemical; conditions: inhibitor at 1 μM; read-out: residual kinase activity in % of maximal activity
AMPKα1(h) = AMPKα1(h) (Homo sapiens, UniProt Q13131); experiment: as above; assay type: biochemical; conditions: inhibitor at 1 μM; read-out: residual kinase activity in % of maximal activity
Aurora-C(h) = Aurora-C(h) (Homo sapiens, UniProt Q9UQB9); experiment: as above; assay type: biochemical; conditions: inhibitor at 1 μM; read-out: residual kinase activity in % of maximal activity
CaMKI(h) = CaMKI(h) (Homo sapiens, UniProt Q14012); experiment: as above; assay type: biochemical; conditions: inhibitor at 1 μM; read-out: residual kinase activity in % of maximal activity
CaMKIIβ(h) = CaMKIIβ(h) (Homo sapiens, UniProt Q13554); experiment: as above; assay type: biochemical; conditions: inhibitor at 1 μM; read-out: residual kinase activity in % of maximal activity
Chain of CaMKIIβ(h) (Q13554 whole entry): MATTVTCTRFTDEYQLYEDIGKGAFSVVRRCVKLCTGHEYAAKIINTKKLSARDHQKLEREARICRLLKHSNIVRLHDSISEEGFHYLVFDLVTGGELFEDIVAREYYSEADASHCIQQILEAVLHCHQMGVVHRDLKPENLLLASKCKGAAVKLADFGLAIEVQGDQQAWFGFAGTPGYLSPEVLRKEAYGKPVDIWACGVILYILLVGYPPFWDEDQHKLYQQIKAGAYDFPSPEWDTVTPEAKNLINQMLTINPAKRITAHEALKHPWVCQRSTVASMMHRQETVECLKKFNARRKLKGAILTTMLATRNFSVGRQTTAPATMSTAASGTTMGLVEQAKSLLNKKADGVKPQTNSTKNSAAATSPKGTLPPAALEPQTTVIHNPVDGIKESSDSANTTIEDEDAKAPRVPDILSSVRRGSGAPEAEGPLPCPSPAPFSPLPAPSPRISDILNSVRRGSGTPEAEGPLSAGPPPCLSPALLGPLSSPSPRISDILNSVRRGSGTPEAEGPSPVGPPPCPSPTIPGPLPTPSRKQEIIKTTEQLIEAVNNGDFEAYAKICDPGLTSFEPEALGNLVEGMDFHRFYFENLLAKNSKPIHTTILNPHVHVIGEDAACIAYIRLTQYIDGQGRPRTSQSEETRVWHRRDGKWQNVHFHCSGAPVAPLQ

CaMKIIγ(h) = CaMKIIγ(h) (Homo sapiens, UniProt Q13555); experiment: as above; assay type: biochemical; conditions: inhibitor at 1 μM; read-out: residual kinase activity in % of maximal activity
Chain of CaMKIIγ(h) (Q13555 whole entry): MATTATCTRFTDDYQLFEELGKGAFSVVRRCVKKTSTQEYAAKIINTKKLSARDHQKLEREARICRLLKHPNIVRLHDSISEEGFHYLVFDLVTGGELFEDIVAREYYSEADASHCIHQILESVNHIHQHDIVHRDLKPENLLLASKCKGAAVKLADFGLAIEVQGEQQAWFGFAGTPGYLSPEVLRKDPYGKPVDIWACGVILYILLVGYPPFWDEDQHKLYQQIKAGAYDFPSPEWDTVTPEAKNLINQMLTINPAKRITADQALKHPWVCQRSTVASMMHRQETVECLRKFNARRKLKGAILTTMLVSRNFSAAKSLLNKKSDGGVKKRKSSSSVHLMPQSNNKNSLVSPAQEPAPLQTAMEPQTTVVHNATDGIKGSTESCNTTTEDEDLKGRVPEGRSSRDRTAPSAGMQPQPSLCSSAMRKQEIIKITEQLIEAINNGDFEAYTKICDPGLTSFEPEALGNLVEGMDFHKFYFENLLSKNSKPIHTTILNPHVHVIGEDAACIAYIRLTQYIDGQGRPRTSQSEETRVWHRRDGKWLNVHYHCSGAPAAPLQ

CaMKIIδ(h) = CaMKIIδ(h) (Homo sapiens, UniProt Q13557); experiment: as above; assay type: biochemical; conditions: inhibitor at 1 μM; read-out: residual kinase activity in % of maximal activity
CaMKIV(h) = CaMKIV(h) (Homo sapiens, UniProt Q16566); experiment: as above; assay type: biochemical; conditions: inhibitor at 1 μM; read-out: residual kinase activity in % of maximal activity
Chain of CaMKIV(h) (Q16566 whole entry): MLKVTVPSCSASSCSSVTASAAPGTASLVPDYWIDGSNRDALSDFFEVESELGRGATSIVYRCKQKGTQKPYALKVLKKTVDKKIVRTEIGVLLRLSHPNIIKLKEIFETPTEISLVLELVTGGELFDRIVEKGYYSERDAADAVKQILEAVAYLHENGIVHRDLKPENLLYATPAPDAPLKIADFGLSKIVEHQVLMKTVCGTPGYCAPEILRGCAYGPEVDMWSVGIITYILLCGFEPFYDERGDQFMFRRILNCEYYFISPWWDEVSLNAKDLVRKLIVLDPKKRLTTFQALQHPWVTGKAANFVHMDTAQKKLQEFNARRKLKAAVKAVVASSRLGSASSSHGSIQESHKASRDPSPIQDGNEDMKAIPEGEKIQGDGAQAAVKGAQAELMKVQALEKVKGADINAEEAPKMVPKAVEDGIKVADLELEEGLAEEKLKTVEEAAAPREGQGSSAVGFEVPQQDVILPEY

CDK2/cyclinE(h) = CDK2/cyclinE(h) (Homo sapiens, UniProt P24941); experiment: as above; assay type: biochemical; conditions: inhibitor at 1 μM
CDK5/p35(h) = CDK5/p35(h) (Homo sapiens, UniProt Q00535); experiment: as above; assay type: biochemical; conditions: inhibitor at 1 μM; read-out: residual kinase activity in % of maximal activity
cKit(h) = cKit(h) (Homo sapiens, UniProt P10721); experiment: as above; assay type: biochemical; conditions: inhibitor at 1 μM; read-out: residual kinase activity in % of maximal activity
FAK(h) = FAK(h) (Homo sapiens, UniProt Q05397); experiment: as above; assay type: biochemical; conditions: inhibitor at 1 μM; read-out: residual kinase activity in % of maximal activity
FGFR1(h) = FGFR1(h) (Homo sapiens, UniProt P11362); experiment: as above; assay type: biochemical; conditions: inhibitor at 1 μM; read-out: residual kinase activity in % of maximal activity
Flt3(h) = Flt3(h) (Homo sapiens, UniProt P36888); experiment: as above; assay type: biochemical; conditions: inhibitor at 1 μM; read-out: residual kinase activity in % of maximal activity
GSK3α(h) = GSK3α(h) (Homo sapiens, UniProt P49840); experiment: as above; assay type: biochemical; conditions: inhibitor at 1 μM; read-out: residual kinase activity in % of maximal activity
GSK3β(h) = GSK3β(h) (Homo sapiens, UniProt P49841); experiment: as above; assay type: biochemical; conditions: inhibitor at 1 μM; read-out: residual kinase activity in % of maximal activity
IGF-1R(h) = IGF-1R(h) (Homo sapiens, UniProt P08069); experiment: as above; assay type: biochemical; conditions: inhibitor at 1 μM; read-out: residual kinase activity in % of maximal activity
JAK2(h) = JAK2(h) (Homo sapiens, UniProt O60674); experiment: as above; assay type: biochemical; conditions: inhibitor at 1 μM
JAK3(h) = JAK3(h) (Homo sapiens, UniProt P52333); experiment: as above; assay type: biochemical; conditions: inhibitor at 1 μM; read-out: residual kinase activity in % of maximal activity
Chain of JAK3(h) (P52333 whole entry): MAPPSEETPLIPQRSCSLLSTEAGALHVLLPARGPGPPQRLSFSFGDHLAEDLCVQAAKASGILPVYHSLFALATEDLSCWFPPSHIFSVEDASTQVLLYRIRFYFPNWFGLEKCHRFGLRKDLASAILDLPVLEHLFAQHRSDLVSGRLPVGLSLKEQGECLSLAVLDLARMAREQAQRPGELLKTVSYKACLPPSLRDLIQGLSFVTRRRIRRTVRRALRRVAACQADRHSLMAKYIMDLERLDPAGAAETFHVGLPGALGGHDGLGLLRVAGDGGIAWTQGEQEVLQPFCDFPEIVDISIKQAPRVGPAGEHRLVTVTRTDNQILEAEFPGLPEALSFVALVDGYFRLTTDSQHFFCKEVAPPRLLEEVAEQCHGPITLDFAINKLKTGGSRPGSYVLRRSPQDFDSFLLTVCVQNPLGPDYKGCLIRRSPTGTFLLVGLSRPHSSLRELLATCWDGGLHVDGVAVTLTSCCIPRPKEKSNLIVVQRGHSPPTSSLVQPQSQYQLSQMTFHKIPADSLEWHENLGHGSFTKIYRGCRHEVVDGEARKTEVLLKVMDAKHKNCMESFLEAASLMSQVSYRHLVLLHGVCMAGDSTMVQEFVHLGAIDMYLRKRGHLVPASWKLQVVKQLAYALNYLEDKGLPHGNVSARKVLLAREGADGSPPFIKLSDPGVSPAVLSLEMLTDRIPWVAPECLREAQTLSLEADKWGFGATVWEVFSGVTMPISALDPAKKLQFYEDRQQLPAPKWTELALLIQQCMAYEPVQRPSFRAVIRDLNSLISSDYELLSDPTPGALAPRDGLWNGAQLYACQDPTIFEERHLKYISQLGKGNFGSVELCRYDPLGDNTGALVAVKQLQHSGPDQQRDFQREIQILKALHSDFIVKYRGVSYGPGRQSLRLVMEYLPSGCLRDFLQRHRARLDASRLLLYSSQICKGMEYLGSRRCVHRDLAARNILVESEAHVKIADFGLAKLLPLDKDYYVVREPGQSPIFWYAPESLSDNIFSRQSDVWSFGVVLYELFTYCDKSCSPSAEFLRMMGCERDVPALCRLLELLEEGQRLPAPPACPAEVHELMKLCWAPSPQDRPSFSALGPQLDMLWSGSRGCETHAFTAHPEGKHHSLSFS

JNK2α2(h) = JNK2α2(h) (Homo sapiens, UniProt P45984); experiment: as above; assay type: biochemical; conditions: inhibitor at 1 μM
KDR(h) = KDR(h) (Homo sapiens, UniProt P35968); experiment: as above; assay type: biochemical; conditions: inhibitor at 1 μM; read-out: residual kinase activity in % of maximal activity
MAPK1(h) = MAPK1(h) (Homo sapiens, UniProt P27361); experiment: as above; assay type: biochemical; conditions: inhibitor at 1 μM; read-out: residual kinase activity in % of maximal activity
MAPK2(h) = MAPK2(h) (Homo sapiens, UniProt P28482); experiment: as above; assay type: biochemical; conditions: inhibitor at 1 μM; read-out: residual kinase activity in % of maximal activity
MEK1(h) = MEK1(h) (Homo sapiens, UniProt Q02750); experiment: as above; assay type: biochemical; conditions: inhibitor at 1 μM; read-out: residual kinase activity in % of maximal activity
Chain of MEK1(h) (Q02750 whole entry): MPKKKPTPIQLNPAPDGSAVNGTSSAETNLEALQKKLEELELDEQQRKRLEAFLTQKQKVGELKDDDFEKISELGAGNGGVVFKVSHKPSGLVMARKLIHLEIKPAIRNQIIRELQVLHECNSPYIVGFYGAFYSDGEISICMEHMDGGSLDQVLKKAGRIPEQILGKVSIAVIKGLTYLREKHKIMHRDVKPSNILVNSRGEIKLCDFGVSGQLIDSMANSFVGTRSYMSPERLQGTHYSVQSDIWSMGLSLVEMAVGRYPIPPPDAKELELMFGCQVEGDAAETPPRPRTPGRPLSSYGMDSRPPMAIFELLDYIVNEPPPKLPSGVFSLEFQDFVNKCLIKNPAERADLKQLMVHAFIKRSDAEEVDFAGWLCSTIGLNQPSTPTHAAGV

mTOR(h) = mTOR(h) (Homo sapiens, UniProt P42345); experiment: as above; assay type: biochemical; conditions: inhibitor at 1 μM; read-out: residual kinase activity in % of maximal activity
p70S6K(h) = p70S6K(h) (Homo sapiens, UniProt P23443); experiment: as above; assay type: biochemical; conditions: inhibitor at 1 μM; read-out: residual kinase activity in % of maximal activity
PAK2(h) = PAK2(h) (Homo sapiens, UniProt Q13177); experiment: as above; assay type: biochemical; conditions: inhibitor at 1 μM; read-out: residual kinase activity in % of maximal activity
PDGFRβ(h) = PDGFRβ(h) (Homo sapiens, UniProt P09619); experiment: as above; assay type: biochemical; conditions: inhibitor at 1 μM; read-out: residual kinase activity in % of maximal activity
PDK1(h) = PDK1(h) (Homo sapiens, UniProt O15530); experiment: as above; assay type: biochemical; conditions: inhibitor at 1 μM; read-out: residual kinase activity in % of maximal activity
Pim-1(h) = Pim-1(h) (Homo sapiens, UniProt P11309); experiment: as above; assay type: biochemical; conditions: inhibitor at 1 μM; read-out: residual kinase activity in % of maximal activity
Pim-3(h) = Pim-3(h) (Homo sapiens, UniProt Q86V86); experiment: as above; assay type: biochemical; conditions: inhibitor at 1 μM; read-out: residual kinase activity in % of maximal activity
PKBγ(h) = PKBγ(h) (Homo sapiens, UniProt Q9Y243); experiment: as above; assay type: biochemical; conditions: inhibitor at 1 μM; read-out: residual kinase activity in % of maximal activity
PKCα(h) = PKCα(h) (Homo sapiens, UniProt P17252); experiment: as above; assay type: biochemical; conditions: inhibitor at 1 μM; read-out: residual kinase activity in % of maximal activity
PKCδ(h) = PKCδ(h) (Homo sapiens, UniProt Q05655); experiment: as above; assay type: biochemical; conditions: inhibitor at 1 μM; read-out: residual kinase activity in % of maximal activity
PKG1α(h) = PKG1α(h) (Homo sapiens, UniProt Q13976); experiment: as above; assay type: biochemical; conditions: inhibitor at 1 μM; read-out: residual kinase activity in % of maximal activity
PKG1β(h) = PKG1β(h) (Homo sapiens, UniProt Q13976); experiment: as above; assay type: biochemical; conditions: inhibitor at 1 μM; read-out: residual kinase activity in % of maximal activity
Chain of PKG1β(h) (Q13976 1-686 isoform Q13976-2): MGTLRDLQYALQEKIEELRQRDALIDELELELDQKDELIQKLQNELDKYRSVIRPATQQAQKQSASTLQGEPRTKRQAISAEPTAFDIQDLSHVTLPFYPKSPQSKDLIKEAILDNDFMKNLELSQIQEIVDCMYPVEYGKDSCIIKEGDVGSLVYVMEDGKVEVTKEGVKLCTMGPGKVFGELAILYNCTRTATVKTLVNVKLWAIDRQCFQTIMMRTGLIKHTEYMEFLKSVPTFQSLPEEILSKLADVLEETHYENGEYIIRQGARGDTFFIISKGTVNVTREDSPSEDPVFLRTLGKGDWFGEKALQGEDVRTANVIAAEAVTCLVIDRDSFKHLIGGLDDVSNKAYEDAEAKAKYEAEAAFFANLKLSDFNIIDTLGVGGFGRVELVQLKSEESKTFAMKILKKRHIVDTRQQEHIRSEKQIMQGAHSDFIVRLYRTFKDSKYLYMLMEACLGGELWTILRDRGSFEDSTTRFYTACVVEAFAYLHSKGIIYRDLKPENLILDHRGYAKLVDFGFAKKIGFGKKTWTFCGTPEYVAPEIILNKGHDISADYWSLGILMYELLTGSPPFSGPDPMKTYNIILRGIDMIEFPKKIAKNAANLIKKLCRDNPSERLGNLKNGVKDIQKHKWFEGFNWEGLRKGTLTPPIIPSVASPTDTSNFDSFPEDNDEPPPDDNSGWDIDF

Ret(h) = Ret(h) (Homo sapiens, UniProt P07949); experiment: as above; assay type: biochemical; conditions: inhibitor at 1 μM; read-out: residual kinase activity in % of maximal activity
ROCK-II(h) = ROCK-II(h) (Homo sapiens, UniProt O75116); experiment: as above; assay type: biochemical; conditions: inhibitor at 1 μM; read-out: residual kinase activity in % of maximal activity
SAPK2a(h) = SAPK2a(h) (Homo sapiens, UniProt Q16539); experiment: as above; assay type: biochemical; conditions: inhibitor at 1 μM
Chain of SAPK2a(h) (Q16539 whole entry): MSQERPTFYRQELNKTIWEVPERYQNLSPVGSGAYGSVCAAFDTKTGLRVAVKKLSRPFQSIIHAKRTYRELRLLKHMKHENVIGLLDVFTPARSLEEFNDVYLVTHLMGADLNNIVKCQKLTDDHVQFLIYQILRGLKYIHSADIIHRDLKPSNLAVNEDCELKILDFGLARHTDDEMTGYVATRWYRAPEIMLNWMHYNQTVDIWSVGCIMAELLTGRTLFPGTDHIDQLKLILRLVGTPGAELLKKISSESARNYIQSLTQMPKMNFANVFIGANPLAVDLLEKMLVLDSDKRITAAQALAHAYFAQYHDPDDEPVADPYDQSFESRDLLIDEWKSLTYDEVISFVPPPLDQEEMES

SGK(h) = SGK(h) (Homo sapiens, UniProt O00141); experiment: as above; assay type: biochemical; conditions: inhibitor at 1 μM; read-out: residual kinase activity in % of maximal activity
Chain of SGK(h) (O00141 whole entry): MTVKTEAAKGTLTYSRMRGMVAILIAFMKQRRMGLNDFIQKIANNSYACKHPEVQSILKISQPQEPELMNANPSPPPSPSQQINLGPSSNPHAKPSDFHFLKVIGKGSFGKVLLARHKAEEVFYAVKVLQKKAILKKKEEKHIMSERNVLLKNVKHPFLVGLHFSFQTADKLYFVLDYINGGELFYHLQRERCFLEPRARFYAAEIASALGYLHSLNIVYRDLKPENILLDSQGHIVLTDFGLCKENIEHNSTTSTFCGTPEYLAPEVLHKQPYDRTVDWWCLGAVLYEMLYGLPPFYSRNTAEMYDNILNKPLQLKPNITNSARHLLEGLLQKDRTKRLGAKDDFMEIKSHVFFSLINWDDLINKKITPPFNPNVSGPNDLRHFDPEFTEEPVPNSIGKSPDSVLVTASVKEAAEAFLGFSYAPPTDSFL

[3] = target: PI3 Kinase (p110a/p85a)(h) (Homo sapiens, UniProt P42336); experiment: as above; assay type: biochemical; conditions: inhibitor at 1 μM; read-out: residual kinase activity in % of maximal activity
[4] = tested on: GFP–CaMKII in rat hippocampal neurons; experiment: cLTP-induced CaMKII synaptic enrichment in dissociated hippocampal cultures (GFP–CaMKII WT); assay type: cell-based; conditions: AS105

Nc1ncnc2c1ncn2[C@@H]1O[C@H](COP(=O)(O)OP(=O)(O)O)[C@@H](O)[C@H]1O [ADP]
bound CaMKIIα (immunoblot, relative) ([1]; 4 mM ADP): 2.712 and 2.4126 and 1.817 | binding to immobilized GST-2BC (immunoblot) [2]: 54.536 and 63.536 and 53.536

NCCNc1cccc(-c2ccnc(Nc3cccc(Cl)c3)n2)c1 [AS105]
remaining activity at 1 µM (Arg(h)): 87% | remaining activity at 1 µM (AMPKα1(h)): 38% | remaining activity at 1 µM (Aurora-C(h)): 57% | remaining activity at 1 µM (CaMKI(h)): 83% | remaining activity at 1 µM (CaMKIIβ(h)): 6% | remaining activity at 1 µM (CaMKIIγ(h)): 2% | remaining activity at 1 µM (CaMKIIδ(h)): 2% | remaining activity at 1 µM (CaMKIV(h)): 101% | residual kinase activity in % of maximal activity (CDK2/cyclinE(h)): 2% | remaining activity at 1 µM (CDK5/p35(h)): 1% | remaining activity at 1 µM (cKit(h)): 91% | remaining activity at 1 µM (FAK(h)): 75% | remaining activity at 1 µM (FGFR1(h)): 91% | remaining activity at 1 µM (Flt3(h)): 2% | remaining activity at 1 µM (GSK3α(h)): 6% | remaining activity at 1 µM (GSK3β(h)): 11% | remaining activity at 1 µM (IGF-1R(h)): 121% | residual kinase activity in % of maximal activity (JAK2(h)): 134% | remaining activity at 1 µM (JAK3(h)): 89% | residual kinase activity in % of maximal activity (JNK2α2(h)): 79% | remaining activity at 1 µM (KDR(h)): 28% | remaining activity at 1 µM (MAPK1(h)): 105% | remaining activity at 1 µM (MAPK2(h)): 106% | remaining activity at 1 µM (MEK1(h)): 111% | remaining activity at 1 µM (mTOR(h)): 102% | remaining activity at 1 µM (p70S6K(h)): 77% | remaining activity at 1 µM (PAK2(h)): 104% | remaining activity at 1 µM (PDGFRβ(h)): 80% | remaining activity at 1 µM (PDK1(h)): 109% | remaining activity at 1 µM (Pim-1(h)): 69% | remaining activity at 1 µM (Pim-3(h)): 109% | remaining activity at 1 µM (PKBγ(h)): 76% | remaining activity at 1 µM (PKCα(h)): 51% | remaining activity at 1 µM (PKCδ(h)): 73% | remaining activity at 1 µM (PKG1α(h)): 61% | remaining activity at 1 µM (PKG1β(h)): 68% | remaining activity at 1 µM (Ret(h)): 55% | remaining activity at 1 µM (ROCK-II(h)): 43% | residual kinase activity in % of maximal activity (SAPK2a(h)): 99% | remaining activity at 1 µM (SGK(h)): 97% | remaining activity at 1 µM [3]: 96% | effect on GluN2B binding ([1]; AS105): without inhibiting | bound CaMKIIα (immunoblot, relative) ([1]; 10 μM AS105, no nucleotide): 2.79 and 2.715 and 1.563 | effect on stimulation-induced movement to excitatory synapses [4]: without inhibiting
